Here are results for five molecules from patent US8846947B2, “Benzimidazoles and related analogs as sirtuin modulators” (GlaxoSmithKline LLC, priority 2008, dated 2014).

The target in this experiment is T1, SIRT1 (Homo sapiens, UniProt Q96EB6).
T1 sequence (Q96EB6 1-747): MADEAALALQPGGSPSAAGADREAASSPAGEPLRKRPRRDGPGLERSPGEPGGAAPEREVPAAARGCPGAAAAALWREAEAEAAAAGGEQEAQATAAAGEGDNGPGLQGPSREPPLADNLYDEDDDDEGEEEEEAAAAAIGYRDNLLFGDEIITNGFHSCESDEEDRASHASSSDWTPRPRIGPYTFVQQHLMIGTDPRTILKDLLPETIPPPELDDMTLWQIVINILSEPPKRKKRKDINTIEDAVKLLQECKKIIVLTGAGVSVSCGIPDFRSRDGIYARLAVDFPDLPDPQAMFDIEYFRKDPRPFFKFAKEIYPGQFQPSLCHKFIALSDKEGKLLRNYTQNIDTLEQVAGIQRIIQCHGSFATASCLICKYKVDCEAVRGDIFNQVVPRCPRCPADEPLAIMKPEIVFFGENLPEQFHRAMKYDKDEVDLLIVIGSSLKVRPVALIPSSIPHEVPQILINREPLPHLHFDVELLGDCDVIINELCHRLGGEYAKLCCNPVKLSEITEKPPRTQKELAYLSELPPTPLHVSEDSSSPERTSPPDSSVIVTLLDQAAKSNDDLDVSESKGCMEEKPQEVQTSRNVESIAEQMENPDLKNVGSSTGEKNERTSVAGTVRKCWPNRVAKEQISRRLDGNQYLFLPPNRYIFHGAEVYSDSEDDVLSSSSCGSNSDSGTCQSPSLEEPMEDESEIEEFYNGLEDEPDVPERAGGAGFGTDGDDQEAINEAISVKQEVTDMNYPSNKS
The experiment can be described thus: Mass spectrometry based SIRT1 deacetylase activation assay (acetylated p53-derived peptide substrate). In kind it is biochemical.

The mark [1] stands for this setting: 0.5 μM peptide substrate, 120 μM βNAD+, 10 nM SIRT1, 25 minutes at 25° C.

Like-named read-outs stand apart in the source and are kept apart here.

Consider `CN1CCOc2cc(-c3nc4c(C(=O)Nc5ccccn5)cccc4[nH]3)cnc21` [Compound 439], for which the “Fold Act. (percent maximum fold activation)” value (0.5 μM peptide substrate, 120 μM βNAD+, 10 nM SIRT1, 25 min at 25° C.) is on record as “B (Fold Activation <200%)”. For the setting “0.5 μM peptide substrate, 120 μM βNAD+, 10 nM SIRT1, 25 min at 25° C., read-out: EC1.5”, the EC1.5 was greater than 25 µM.
Consider `Cc1nc(NC(=O)c2cccc3[nH]c(-c4ccnn4-c4ccccc4)nc23)sc1C` [Compound 395], for which the EC1.5 entry is recorded as “A (EC1.5<1.0 uM)” and the “Fold Act. (percent maximum fold activation)” value is “A (Fold activation >200%)”.
`O=C(Nc1nccs1)c1cccc2[nH]c(-c3ccc(Cl)nc3)nc12` [Compound 246]: the EC1.5 result was “B (EC1.5 1-25 uM)” and the “Fold Act. (percent maximum fold activation)” value was “B (Fold Activation <200%)”.
In the case of `O=C(Nc1ccccn1)c1cncc2[nH]c(-c3ccc(F)cc3C(F)(F)F)nc12` [Compound 694], under setting [1], the EC1.5 result is given as “B (EC1.5 1-25 uM)” and the “Fold Act. (percent maximum fold activation)” value is “B (Fold Activation <200%)”.
For `O=C(Nc1nccs1)c1cccc2[nH]c(-c3cccc(OCC(O)CO)c3)nc12` (stereo not shown) [Compound 324, 2-(3-(2,3-dihydroxypropoxy)phenyl)-N-(thiazol-2-yl)-1H-benzo[d]imidazole-4-carboxamide], the EC1.5 result was “A (EC1.5<1.0 uM)” and the “Fold Act. (percent maximum fold activation)” value is “A (Fold activation >200%)”.
